Article PMC6437269, “OXA-48-Mediated Ceftazidime-Avibactam Resistance Is Associated with Evolutionary Trade-Offs” (mSphere, 2019)

Experiments:
OXA-48 = target: T1, OXA-48 (Klebsiella pneumoniae, UniProt Q6XEC0); assay: biochemical; settings: nitrocefin reporter substrate; enzyme and inhibitor incubated 5 min; error = 95% CI
T1 construct: made in house

OXA-48:P68A = OXA-48:P68A (Klebsiella pneumoniae, UniProt Q6XEC0, P68A); assay: IC50 with nitrocefin as reporter substrate, OXA-48:P68A; type: biochemical
Sequence of OXA-48:P68A (Q6XEC0 23-265 P68A): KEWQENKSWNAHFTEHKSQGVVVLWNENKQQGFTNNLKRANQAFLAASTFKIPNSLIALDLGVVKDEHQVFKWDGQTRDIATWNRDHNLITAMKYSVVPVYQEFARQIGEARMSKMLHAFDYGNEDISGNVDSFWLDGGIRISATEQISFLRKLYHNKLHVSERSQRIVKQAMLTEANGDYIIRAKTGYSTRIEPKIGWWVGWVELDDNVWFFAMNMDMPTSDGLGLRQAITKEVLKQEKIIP

T1 sequence (Q6XEC0 23-265 limits assumed): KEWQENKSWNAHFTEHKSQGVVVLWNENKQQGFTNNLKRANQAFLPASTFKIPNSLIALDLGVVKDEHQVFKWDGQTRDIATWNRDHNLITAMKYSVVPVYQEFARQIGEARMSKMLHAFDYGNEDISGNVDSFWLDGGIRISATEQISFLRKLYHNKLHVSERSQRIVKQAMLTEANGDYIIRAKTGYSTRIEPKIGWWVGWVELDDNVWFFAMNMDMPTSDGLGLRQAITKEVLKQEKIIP

For C[C@]1(Cn2ccnn2)[C@H](C(=O)O)N2C(=O)C[C@H]2S1(=O)=O [Tazobactam, tazobactam], the IC50 (OXA-48) was 95 ± 9 µM, the “reduction in the IC50” value (OXA-48:P68A; P68A compared to native OXA-48, 5 min) was over 20 fold and the IC50 (OXA-48:P68A; nitrocefin reporter substrate, enzyme and inhibitor incubated 5 min, error = 95% CI) was 4 ± 1 µM.
